Test results reported in patent US5189058A, “Iminodicarbonic, iminodicarbonodithioic, and thiocarbonylcarbamic acid esters useful as ACAT inhibitors” (Warner-Lambert Company, priority 1991, dated 1993).
Like-named read-outs stand apart in the source and are kept apart here.

Experiments:
[1] = target: T1, acyl-CoA: cholesterol acyltransferase (ACAT) (Oryctolagus cuniculus, UniProt G1SFD9); assay: in vitro ACAT inhibition (radiolabeled cholesterol oleate formed from radiolabeled oleic acid, rabbit intestinal microsomes); assay type: biochemical
T1 sequence (G1SFD9 1-524): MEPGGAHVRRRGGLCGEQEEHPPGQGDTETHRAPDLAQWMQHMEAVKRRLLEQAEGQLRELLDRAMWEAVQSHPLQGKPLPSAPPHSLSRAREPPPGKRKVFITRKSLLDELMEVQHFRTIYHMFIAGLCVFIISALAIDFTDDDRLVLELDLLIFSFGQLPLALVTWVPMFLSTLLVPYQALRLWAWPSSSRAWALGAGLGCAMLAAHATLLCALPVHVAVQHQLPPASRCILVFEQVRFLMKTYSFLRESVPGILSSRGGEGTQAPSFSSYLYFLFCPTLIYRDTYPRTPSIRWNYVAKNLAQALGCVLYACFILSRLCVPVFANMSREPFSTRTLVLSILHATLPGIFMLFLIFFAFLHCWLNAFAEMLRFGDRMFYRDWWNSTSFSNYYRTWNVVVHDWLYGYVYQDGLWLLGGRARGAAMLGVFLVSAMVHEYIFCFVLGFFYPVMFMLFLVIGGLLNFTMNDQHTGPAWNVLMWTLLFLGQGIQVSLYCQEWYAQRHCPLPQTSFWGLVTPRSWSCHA
Experimental: The ability of representative compounds of the present invention to inhibit ACAT was measured using an in vitro test more fully described in F. J. Field and R. G. Salone, Biochemica et Biophysica 712:557-570 (1982). The test assesses the ability of a test compound to inhibit the acylation of cholesterol by oleic acid by measuring the amount of radiolabeled cholesterol oleate formed from radiolabeled oleic acid in a tissue preparation containing rabbit intestinal microsomes.

[2] = in vivo screen designated APCC (blood cholesterol in rats on high fat, high cholesterol diet); settings: Rattus norvegicus, 16 h, male Sprague-Dawley rats, 30 mg/kg in CMC/Tween at 4 PM, PCC diet (0.5% cholic acid) overnight, sacrificed 8 AM, read-out: % Change (mg/dl)
Experimental: In one in vivo screen designated APCC, male Sprague-Dawley rats (200 to 225 g) were randomly divided into treatment groups and dosed at 4 PM with either vehicle (CMC/Tween) or suspensions of compounds in vehicle at a dose of 30 mg/kg. The normal chow diet was then replaced with a high fat, high cholesterol diet (designated PCC) containing 0.5% cholic acid. The rats consumed this diet ad libitum during the night and were sacrificed at 8 AM to obtain blood samples for cholesterol analysis using standard procedures. Statistical differences between mean cholesterol values for the same vehicle were determined using analysis of variance followed by Fisher's least significant test.

[3] = rabbit intestinal microsomes, acylation of cholesterol by oleic acid, read-out: IC50

With `Cc1cccc(C)c1SC(=O)NC(=O)Sc1c(C)cccc1C` [Example 33, Iminodicarbonodithioic acid, S,S'-bis[2,6-bis(methyl)phenyl]ester] the IC50 [1, 3] was 230 nM and the change in vivo at 30 mg/kg [2] was -33%.

In the case of `CCCCCCCCCCCCC(C)OC(=O)NC(=O)Oc1c(C(C)C)cccc1C(C)C` (racemic) [Example 3, Iminodicarbonic acid, 2,6-bis(1-methylethyl)phenyl 1-methyltridecyl ester, (±)], the change in vivo at 30 mg/kg [2] is reported as -50%.

For `CC(C)c1cccc(C(C)C)c1OC(=O)NC(=O)Sc1c(C(C)C)cccc1C(C)C` [Example 19, 2,6-Bis[[(1-methylethyl)phenyl]thio]carbamic acid, 2,6-bis(1-methylethyl)phenyl ester], the change in vivo at 30 mg/kg [2] was -20%.

`CC(C)c1cccc(C(C)C)c1OC(=O)NC(=O)Oc1ccccc1` [Example 27, Iminodicarbonic acid, 2,6-bis(1-methylethyl)phenyl phenyl ester] showed an IC50 [1, 3] of 3700 nM.

For `CC(C)c1cccc(C(C)C)c1OC(=O)NC(=O)Sc1ccccc1` [Example 28], the IC50 [1, 3] was 1800 nM and the change in vivo at 30 mg/kg [2] was -19%.

With `CCCCCCCCCCC(C)OC(=O)NC(=O)Oc1c(C(C)C)cccc1C(C)C` (stereo not drawn) [Example 15, Iminodicarbonic acid, 2,6-bis(1-methylethyl)phenyl 1-methylundecyl ester] the change in vivo at 30 mg/kg [2] was -66%.

Work on `CC(C)(C)c1cccc(C(C)(C)C)c1OC(=O)NC(=O)Oc1c(C(C)(C)C)cccc1C(C)(C)C` [Example 35, Iminodicarbonic acid bis[2,6-bis(1,1-dimethylethyl)phenyl]ester] yielded a change in vivo at 30 mg/kg [2] of -4%.

`CCCCCCCCCCCOC(=O)NC(=O)Oc1c(C(C)C)cccc1C(C)C` [Example 11, Iminodicarbonic acid, 2,6-bis(1-methylethyl)phenyl undecyl ester] showed a change in vivo at 30 mg/kg [2] of -65%.

In the case of `COC(=O)C(OC(=O)NC(=O)Oc1c(C(C)C)cccc1C(C)C)c1ccccc1` (stereo not drawn) [Example 25, α-[[[[[2,6-Bis(1-methylethyl)phenoxy]carbonyl]amino]carbonyl]oxy]benzeneacetic acid, methyl ester], the change in vivo at 30 mg/kg [2] is reported as -12%.

In the case of `CCCCCCCCCCCCC(C)(C)OC(=O)NC(=O)Oc1c(C(C)C)cccc1C(C)C` [Example 4, Iminodicarbonic acid, 2,6-bis(1-methylethyl)phenyl 1,1-dimethyltridecyl ester], the change in vivo at 30 mg/kg [2] is reported as -51%.

`CCCCCCCCCCSC(=O)NC(=O)Oc1c(C(C)C)cccc1C(C)C` [Example 20, [(Decylthio)carbonyl]carbamic acid, 2,6-bis(1-methylethyl)phenyl ester] showed a change in vivo at 30 mg/kg [2] of -52%.

Compound `CC(C)c1cccc(C(C)C)c1OC(=O)NC(=O)Oc1cccc2ccccc12` [Example 26, Iminodicarbonic acid, [2,6-bis(1-methylethyl)phenyl](1-naphthalenyl) ester] has an IC50 [1, 3] of 1200 nM and a change in vivo at 30 mg/kg [2] of -11%.

`CCCCCCCCCCCCSC(=O)NC(=O)Sc1c(C(C)C)cccc1C(C)C` [Example 31, Iminodicarbonodithioic acid, 5-[2,6-bis(1-methylethyl)phenyl] S'-dodecyl ester] gave an IC50 [1, 3] of over 1000 nM and a change in vivo at 30 mg/kg [2] of -35%.

Compound `CC(C)c1cccc(C(C)C)c1OC(=O)NC(=O)Oc1c(C(C)C)cccc1C(C)C` [Example 24, Iminodicarbonic acid, di[2,6-bis(1-methylethyl)phenyl]ester] has a change in vivo at 30 mg/kg [2] of -43%.

`CCCCCCCCCCCCC(C)OC(=O)N(C)C(=O)Oc1c(C(C)C)cccc1C(C)C` (stereo not drawn) [Example 37, Methyliminodicarbonic, 2,6-bis(1-methylethyl)phenyl 1-methyltridecyl ester] showed an IC50 [1] of 600 nM and a change in vivo at 30 mg/kg [2] of -8%.

`CCCCCCCCCCCCOC(=O)NC(=O)Oc1c(C(C)C)cccc1C(C)C` [Example 2, Iminodicarbonic acid, dodecyl 2,6-bis(1-methylethyl)phenyl ester] showed a change in vivo at 30 mg/kg [2] of -52%.

With `CCCCCCCCC(C)OC(=O)NC(=O)Oc1c(C(C)C)cccc1C(C)C` (stereo not drawn) [Example 14, Iminodicarbonic acid, 2,6-bis(1-methylethyl)phenyl 1-methylnonyl ester] the change in vivo at 30 mg/kg [2] was -54%.

For `CCCCCCCCCCCCC(C)OC(=O)NC(=O)Oc1ccc(F)cc1F` (stereo not drawn) [Example 30, Iminodicarbonic acid, 2,4-difluorophenyl 1-methyltridecyl ester], the IC50 [1, 3] was over 5000 nM and the change in vivo at 30 mg/kg [2] was -15%.

Compound `O=C(NC(=O)Oc1c(-c2ccccc2)cccc1-c1ccccc1)Oc1c(-c2ccccc2)cccc1-c1ccccc1` [Example 32, Iminodicarbonic acid, di[1,1'[3',1"-terphenyl]-2-yl]ester] has an IC50 [1, 3] of 10400 nM and a change in vivo at 30 mg/kg [2] of -36%.

`O=C(NC(=O)OC(c1ccccc1)c1ccccc1)OC(c1ccccc1)c1ccccc1` [Example 36, Iminodicarbonic acid, di(diphenylmethyl)ester] gave an IC50 [1, 3] of over 5000 nM.

`CCCCCCCCCCCCOC(=O)NC(=O)Sc1c(C(C)C)cccc1C(C)C` [Example 34, [[[2,6-Bis(1-methylethyl)phenyl]thio]carbonyl]carbamic acid, dodecyl ester] gave an IC50 [1, 3] of over 5000 nM.

`CCCCCCCCCCOC(=O)NC(=O)Oc1c(C(C)C)cccc1C(C)C` [Example 17, Iminodicarbonic acid, 2,6-bis(1-methylethyl)phenyl decyl ester] gave a change in vivo at 30 mg/kg [2] of -43%.

Work on `CCCCCC(C)OC(=O)NC(=O)Oc1c(C(C)C)cccc1C(C)C` (racemic) [Example 9, Iminodicarbonic acid, 2,6-bis(1-methylethyl)phenyl 1-methylhexyl ester, (± )] yielded a change in vivo at 30 mg/kg [2] of -60%.

With `CCCCCCCC(C)OC(=O)NC(=O)Oc1c(C(C)C)cccc1C(C)C` (stereo not drawn) [Example 13] the change in vivo at 30 mg/kg [2] was -56%.

Work on `CCCCC[C@H](C)OC(=O)NC(=O)Oc1c(C(C)C)cccc1C(C)C` [Example 7, Iminodicarbonic acid, 2,6-bis(1-methylethyl)phenyl 1-methylhexyl ester (S)] yielded a change in vivo at 30 mg/kg [2] of -25%.

With `CCCCC(C)(C)OC(=O)NC(=O)Oc1c(C(C)C)cccc1C(C)C` [Example 5, Iminodicarbonic acid, 2,6-bis(1-methylethyl)phenyl 1,1-dimethylpentyl ester] the change in vivo at 30 mg/kg [2] was -29%.

For `CCCCCCCCOC(=O)NC(=O)Oc1c(C(C)C)cccc1C(C)C` [Example 16, Iminodicarbonic acid, 2,6-bis(1-methylethyl)phenyl octyl ester], the change in vivo at 30 mg/kg [2] was -47%.

With `CC(C)c1cccc(C(C)C)c1OC(=O)NC(=O)OC(c1ccccc1)c1ccccc1` [Example 1, Iminodicarbonic acid, 2,6-bis(1-methylethyl)phenyldiphenylmethyl ester] the change in vivo at 30 mg/kg [2] was -13%.

Compound `CCCCCCCCCCCCSC(=O)NC(=O)Oc1c(C(C)C)cccc1C(C)C` [Example 18, [(Dodecylthio)carbonyl] -carbamic acid, 2,6-bis(1-methylethyl)phenyl ester] has an IC50 [1, 3] of 28 nM and a change in vivo at 30 mg/kg [2] of -63%.

For `CCCCCCOC(=O)NC(=O)Oc1c(C(C)C)cccc1C(C)C` [Example 6, Iminodicarbonic acid, 2,6-bis(1-methylethyl)phenyl hexyl ester], the IC50 [1, 3] was 93 nM and the change in vivo at 30 mg/kg [2] was -38%.

Compound `CCCCCCCCCCCCCCCCOC(=O)NC(=O)Oc1c(C(C)C)cccc1C(C)C` [Example 10, Iminodicarbonic acid, 2,6-bis(1-methylethyl)phenyl hexadecyl ester] has an IC50 [1, 3] of 50 nM and a change in vivo at 30 mg/kg [2] of -70%.

`CCCCCCCCCCCCOC(=O)NC(=O)Oc1c(OC)cc(OC)cc1OC` [Example 29, Iminodicarbonic acid, dodecyl 2,4,6-trimethoxyphenyl ester] showed an IC50 [1, 3] of over 5000 nM.

Compound `CCCCCCCCCCCCCCCCCCOC(=O)NC(=O)Oc1c(C(C)C)cccc1C(C)C` [Example 12, Iminodicarbonic acid, 2,6-bis(1-methylethyl)phenyl octadecyl ester] has an IC50 [1, 3] of 1200 nM and a change in vivo at 30 mg/kg [2] of -34%.

In the case of `CCCCC[C@@H](C)OC(=O)NC(=O)Oc1c(C(C)C)cccc1C(C)C` [Example 8, Iminodicarbonic acid, 2,6-bis(1-methylethyl)phenyl 1-methylhexyl ester (R)], the change in vivo at 30 mg/kg [2] is reported as -49%.
